Test results: patent US9115151B2, “Substituted 2,10-dihydro-9-oxa-1,2,4A-triazaphenanthren-3-ones and uses thereof” (AbbVie Inc., priority 2012, dated 2015)

What was measured:
[1] = target: T1, PKCα (Homo sapiens, UniProt P17252); assay: In vitro enzyme assay (time-resolved fluorescence kinase assay), PKCα, 100 μM ATP; assay type: biochemical; conditions: 100 μM ATP; read-out: PKCα enzyme IC50
T1 construct: His6; purchased Millipore; host or cells: baculovirus in Sf21 cells
Method: (§1) PKC kinase activity was assayed by time-resolved fluorescence in vitro kinase assay. Unless otherwise indicated, all reagents used for enzyme assays were obtained from Sigma. Specifically, 5 μL N- or C-terminal His6-tagged, recombinant, human PKC, expressed by baculovirus in Sf21 cells (Millipore) was mixed with 5 μL inhibitor (various concentrations, 5% final DMSO), 5 μL Bio-cdc peptide (Biotin-Ahx-[…], 2 μM final concentration, New England Peptide) and 5 μL of ATP (100 μM or 1000 μM final concentration) in 1× reaction buffer, 20 μL final volume.
(§2) Following a sixty minute incubation at room temperature, the reaction was quenched with 5 μL of 0.5 M EDTA pH 7.5.
(§3) Background counts from a minus enzyme control is subtracted from all data. Data (after background correction) are converted to percent activity by dividing by the signal obtained from PKC without drug sample.

[2] = system: CD3/CD28 induced IL-2 in human T-Blasts; assay: T-Blasts CD3/CD28 induced IL-2 assay; assay type: cell-based; conditions: read-out: CD3/CD28-stimulated IL2 in T-blasts EC50
Method: T-Blasts CD3/CD28 Induced IL-2 Assay
Human T-Blasts are generated using PHA following standard protocols. T-Blasts are freeze aliquoted and vials thawed as required. […] Seed 2×10^5/100 μL cell suspension per well in flat bottomed 96 well plate. Compound dilutions are prepared from 100% DMSO stocks. A total of 8 serial dilutions are made (1/3 in 100% DMSO). Compounds are diluted 1/50 in growth medium to prepare 4× stocks of each tested concentration. 50 μL from each 4× stock concentration is added to the 100 μL cell suspension and incubated for 30 minutes prior stimulus addition. A 4× stimulus stock is prepared using anti-CD3+anti-CD28 antibodies. Antibody mix is added to the cell/compounds suspension in 50 μL at 5 μg/mL final concentration. Compounds are tested in duplicates. Plates are transferred to 37° C./CO2 incubator for 24 hours. After incubation 130 μL of supernatant is collected for IL-2 determination while MTT toxicity analysis is performed on remaining cells/medium.

[3] = target: T2, PKCθ (Homo sapiens, UniProt Q04759); assay: In vitro enzyme assay (time-resolved fluorescence kinase assay), PKCθ, 100 μM ATP; assay type: biochemical
T2 construct: His6; purchased Millipore; host or cells: baculovirus in Sf21 cells
Method: as §1, §2, §3

T2 sequence (Q04759 whole entry): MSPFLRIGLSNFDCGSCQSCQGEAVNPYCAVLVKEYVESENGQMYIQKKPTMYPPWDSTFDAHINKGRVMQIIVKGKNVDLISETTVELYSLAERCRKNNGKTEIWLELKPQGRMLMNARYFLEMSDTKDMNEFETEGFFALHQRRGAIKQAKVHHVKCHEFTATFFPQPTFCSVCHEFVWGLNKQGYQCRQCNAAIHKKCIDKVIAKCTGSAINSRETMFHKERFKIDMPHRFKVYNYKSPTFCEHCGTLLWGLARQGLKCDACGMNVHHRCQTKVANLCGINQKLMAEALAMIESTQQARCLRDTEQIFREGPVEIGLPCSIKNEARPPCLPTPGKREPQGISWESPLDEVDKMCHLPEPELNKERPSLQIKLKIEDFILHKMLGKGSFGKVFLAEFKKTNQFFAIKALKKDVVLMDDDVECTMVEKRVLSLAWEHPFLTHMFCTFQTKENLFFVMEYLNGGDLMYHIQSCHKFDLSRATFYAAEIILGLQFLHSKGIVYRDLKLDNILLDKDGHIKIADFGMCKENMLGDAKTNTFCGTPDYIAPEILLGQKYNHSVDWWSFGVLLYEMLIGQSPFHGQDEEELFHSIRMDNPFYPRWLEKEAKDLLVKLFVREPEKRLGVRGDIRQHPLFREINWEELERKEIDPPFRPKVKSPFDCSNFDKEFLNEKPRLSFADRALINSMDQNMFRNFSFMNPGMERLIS

Row | IC50 [1] | EC50 [2] | IC50 [3] | SMILES
1 | 0.25 to 1 µM | < 0.25 µM | < 0.25 µM | C[C@@H]1C(=O)NN=C2COc3cc(-c4ccccc4Cl)c(NC4CNC4)cc3N21 [Example 2]
2 | 1 to 10 µM | < 0.25 µM | < 0.25 µM | C[C@@H]1C(=O)NN=C2COc3cc(-c4ccccc4F)c(NC4CNC4)cc3N21 [Example 3]
3 | 1 to 10 µM | < 0.25 µM | < 0.25 µM | C[C@@H]1C(=O)NN=C2COc3cc(-c4ccc(F)cc4F)c(NC4CNC4)cc3N21 [Example 4]
4 | 1 to 10 µM | < 0.25 µM | < 0.25 µM | Cc1ccccc1-c1cc2c(cc1NC1CNC1)N1C(=NNC(=O)[C@H]1C)CO2 [Example 5]
5 | 1 to 10 µM | < 0.25 µM | < 0.25 µM | C[C@@H]1C(=O)NN=C2COc3cc(-c4cccc(F)c4)c(NC4CNC4)cc3N21 [Example 6]
6 | 1 to 10 µM | < 0.25 µM | < 0.25 µM | C[C@@H]1C(=O)NN=C2COc3cc(-c4ccc(Cl)cc4Cl)c(NC4CNC4)cc3N21 [Example 8]
7 | 1 to 10 µM | < 0.25 µM | < 0.25 µM | C[C@@H]1C(=O)NN=C2COc3cc(-c4cccc5ccccc45)c(NC4CNC4)cc3N21 [Example 10]

More lines, now with the values behind:

Row | SMILES | IC50 [1] | EC50 [2] | IC50 [3]
8 | C[C@@H]1C(=O)NN=C2COc3cc(-c4ccccc4F)c(N(C)[C@@]4(C)CCN(C)C4)cc3N21 (single isomer, unassigned) [Example 198-3] | 0.25 to 1 µM | < 0.25 µM | < 0.25 µM
9 | C[C@@H]1C(=O)NN=C2COc3cc(-c4ccccc4F)c(N(C)[C@]4(C)CCN(C)C4)cc3N21 (single isomer, unassigned) [Example 198-4] | 0.25 to 1 µM | < 0.25 µM | < 0.25 µM
10 | C[C@@H]1C(=O)NN=C2COc3cc(-c4ccc(Cl)cc4)c(NC4CNC4)cc3N21 [Example 7] | 1 to 10 µM | < 0.25 µM | < 0.25 µM
11 | C[C@@H]1C(=O)NN=C2COc3cc(-c4ccc(F)cc4)c(NC4CNC4)cc3N21 [Example 9] | 1 to 10 µM | < 0.25 µM | < 0.25 µM
12 | C[C@@H]1C(=O)NN=C2COc3cc(-c4ccc(OC(F)(F)F)cc4)c(NC4CNC4)cc3N21 [Example 11] | 1 to 10 µM | < 0.25 µM | 0.25 to 1 µM
13 | Cc1cc2c(cc1N(C)C1CNC1)N1C(=NNC(=O)C1C)CO2 (stereo not drawn) [Example 55, 6-(Azetidin-3-yl-methyl-amino)-4,7-dimethyl-2,10-dihydro-9-oxa-1,2,4a-triaza-phenanthren-3-one trifluoroacetic acid] | 1 to 10 µM | 1 to 10 µM | 0.25 to 1 µM
14 | CC(C)Cc1cc2c(cc1NC1CNC1)N1C(=NNC(=O)C1C)CO2 (stereo not drawn) [Example 58] | 1 to 10 µM | < 0.25 µM | < 0.25 µM
15 | CCc1cc2c(cc1NC1CNC1)N1C(=NNC(=O)C1C)CO2 (stereo not drawn) [Example 59] | 1 to 10 µM | 0.25 to 1 µM | < 0.25 µM
16 | CC1C(=O)NN=C2COc3cc(C4CCCC4)c(NC4CNC4)cc3N21 (stereo not drawn) [Example 60] | 1 to 10 µM | 0.25 to 1 µM | < 0.25 µM
17 | C[C@@H]1C(=O)NN=C2COc3cc([C@@H](C)C(F)(F)F)c(NC4CNC4)cc3N21 [Example 61] | 1 to 10 µM | 0.25 to 1 µM | < 0.25 µM
18 | C[C@@H]1C(=O)NN=C2COc3cc([C@H](C)C(F)(F)F)c(NC4CNC4)cc3N21 [Example 62] | 1 to 10 µM | 0.25 to 1 µM | < 0.25 µM
19 | CC1C(=O)NN=C2COc3cc(C(C)C(F)(F)F)c(NC4(C)CNC4)cc3N21 (stereo not drawn) [Example 63] | 1 to 10 µM | < 0.25 µM | < 0.25 µM
20 | CC1C(=O)NN=C2COc3cc(C4CC4)c(OC4CNC4)cc3N21 (stereo not drawn) [Example 65, 6-(Azetidin-3-yloxy)-7-cyclopropyl-4-methyl-2,10-dihydro-9-oxa-1,2,4a-triaza-phenanthren-3-one trifluoroacetic acid] | 1 to 10 µM | < 0.25 µM | < 0.25 µM
21 | CC1C(=O)NN=C2COc3cc(-c4ccccc4)c(OC4CNC4)cc3N21 (stereo not drawn) [Example 66] | 1 to 10 µM | < 0.25 µM | < 0.25 µM
